Test results from patent publication US10342836B2, “Composition having a function for alleviating premenstrual syndrome and menstrual pain” (AMOREPACIFIC CORPORATION, priority 2013, dated 2019).

System: women of child-bearing ages
Experiment: Evaluation of improvement in premenstrual syndrome and menstrual pain by questionnaire before and after about 4 weeks of oral tablets
Format: in vivo, human
From the text: The American Psychiatric Association presents the following diagnosis standard for premenstrual syndrome.
According to the standard, women who satisfy at least 5 of the following 11 items and at least one of the first 4 items were selected for test.
(1) Quick change in emotion; sudden sadness, anger or rage
(2) Persistent severe anger and uneasiness
(3) Uneasiness and tension
(4) Depression and hopelessness
(5) Disinterest in daily lives
(6) Fatigue or low energy
(10) Difficulty in emotion control
(11) Breast tenderness, headache, edema, muscle or joint pain and weight gain
For the test, 350 mg tablets containing 100 wt % of the ginseng fruit extract of
A table top tablet making machine (Erweka, Germany) was used.
40 women were selected from 48 women of child-bearing ages (in their 20s to 50s) according to the diagnosis standard. They were divided into 4 groups: i.e., unadministered group, red ginseng group, ginsenoside Re group, and ginseng fruit group. Each group was composed of 10 subjects.
The red ginseng group was asked to take the red ginseng-containing tablets for 4 weeks, twice a day, two tablets once. That is to say, 1400 mg/day of red ginseng extract was administered to them.
The ginsenoside Re group was asked to take tablets containing ginsenoside Re as an active ingredient twice a day, two tablets once. […] The content of ginsenoside Re was determined based on the analysis result shown in FIG. 1 for comparison of the effect of improving premenstrual syndrome and menstrual pain of ginseng fruit extract and only ginsenoside Re contained therein.
The ginseng fruit group was asked to take the ginseng fruit extract-containing tablets for 4 weeks, twice a day, two tablets once. That is to say, 1400 mg/day of ginseng fruit extract was administered to them.
The 40 women were asked to answer questionnaires first after menstruation and, after the administration of nothing, the red ginseng extract or the ginseng fruit extract, to answer questionnaires after the next menstruation was over (about 4 weeks later). The improvement in the symptoms of premenstrual syndrome was evaluated by monitoring the change in total scores based on the questionnaires. One point was given for each item.

[1] = group total, n = 10 women, about 4 weeks, 1400 mg/day extract or 240 mg/day ginsenoside Re
[2] = n = 10 per group, about 4 weeks, 1400 mg/day extract or 240 mg/day ginsenoside Re

CC(C)=CCC[C@](C)(O[C@@H]1O[C@H](CO)[C@@H](O)[C@H](O)[C@H]1O)[C@H]1CC[C@]2(C)[C@@H]1[C@H](O)C[C@@H]1[C@@]3(C)CC[C@H](O)C(C)(C)[C@@H]3[C@@H](O[C@@H]3O[C@H](CO)[C@@H](O)[C@H](O)[C@H]3O[C@@H]3O[C@@H](C)[C@H](O)[C@@H](O)[C@H]3O)C[C@]12C [Ginsenoside Re, ginsenoside Re]
Total score, difference (before minus after administration) [1]: 9
Total score, difference in percent of the score before administration [1]: 12%
Total score (premenstrual syndrome questionnaire), after administration (group total, n = 10 women, after next menstruation (about 4 weeks), tablets twice a day, two tablets once: 1400 mg/day extract or 240 mg/day ginsenoside Re): 66
Total score (premenstrual syndrome questionnaire), before administration (group total, n = 10 women, one point per item (11 items), questionnaire after menstruation, before administration): 75
Number of women who felt the symptoms, difference (before minus after) [2]: 2
Number of women who felt the symptoms, difference in percent [2]: 20%
Number of women who felt the symptoms of premenstrual syndrome, after administration (n = 10 per group, after about 4 weeks, 1400 mg/day extract or 240 mg/day ginsenoside Re): 8
Number of women who felt the symptoms of premenstrual syndrome, before administration (n = 10 per group, before administration): 10
